Values after ≈ are worked out from the molar mass of the structure shown.
What was measured:
Type in all cases: cell-based
[1] = system: E. coli ATCCBAA-199; assay: MIC, CLSI broth microdilution, cation-adjusted Mueller Hinton broth with human apo-transferrin (Test Example 1); conditions: inoculum 5×10^5 cfu/mL; for MIC: Escherichia coli, ATCCBAA199, Table 2, SHV-3 ESBL producing strain, read-out: Minimum Inhibitory Concentration (MIC) E. coli ATCC BAA-199
Experimental: (§1) Measurement of Minimum Inhibitory Concentration (MIC: μg/mL) was conducted according to CLSI (Clinical and Laboratory Standards Institute) method, and the amount of bacteria for inoculation was 5×10^5 cfu/mL, and cation-adjusted Mueller Hinton broth containing human apo-transferrin was used as a test medium, and the experiment was conducted using broth microdilution method. The bacteria used are listed below.

[2] = system: K. pneumoniae ATCCBAA-1705; assay: as above; conditions: inoculum 5×10^5 cfu/mL; for MIC: Klebsiella pneumoniae, ATCCBAA1705, Table 2, KPC-2 carbapenemase producing strain, read-out: Minimum Inhibitory Concentration (MIC) K. pneumoniae ATCC BAA-1705
Experimental: as §1

[3] = system: E. coli ATCCBAA-200; assay: as above; conditions: inoculum 5×10^5 cfu/mL; for MIC: Escherichia coli, ATCCBAA200, Table 2, SHV-4 ESBL producing strain, read-out: Minimum Inhibitory Concentration (MIC) E. coli ATCC BAA-200
Experimental: as §1

[4] = system: P. aeruginosa SR24; assay: as above; conditions: no enzyme, inoculum 5×10^5 cfu/mL; for MIC: Pseudomonas aeruginosa, SR24, Table 2, ceftazidime resistance strain, read-out: Minimum Inhibitory Concentration (MIC) P. aeruginosa SR24; for Minimum Inhibitory Concentration (MIC) P. aeruginosa SR24: Table 2, ceftazidime resistance strain
Experimental: as §1

[5] = system: A. baumannii SR27323; assay: as above; conditions: inoculum 5×10^5 cfu/mL; for MIC: Acinetobacter baumannii, SR27323, Table 2, OXA-23, OXA-58 carbapenemase producing strain, read-out: Minimum Inhibitory Concentration (MIC) A. baumannii SR27323; for Minimum Inhibitory Concentration (MIC) A. baumannii SR27323: Table 2, OXA-23, OXA-58 carbapenemase producing strain
Experimental: as §1

[6] = system: P. aeruginosa SR27060; assay: as above; conditions: inoculum 5×10^5 cfu/mL; for MIC: Pseudomonas aeruginosa, SR27060, Table 2, IMP-1 MBL producing strain (carbapenem resistance strain), read-out: Minimum Inhibitory Concentration (MIC) P. aeruginosa SR27060
Experimental: as §1

[7] = system: E. coli ATCCBAA-200; assay: MIC, CLSI broth microdilution, cation-adjusted iso-sensitest broth with human apo transferrin (Test Example 2); conditions: Escherichia coli, ATCCBAA200, Table 5, SHV-4 ESBL producing strain, inoculum 5×10^5 cfu/mL, read-out: Minimum Inhibitory Concentration (MIC) E. coli ATCC BAA-200
Experimental: as §1, with “iso-sensitest” for “Mueller Hinton”, “apo transferrin” for “apo-transferrin”

[8] = system: E. coli ATCCBAA-196; assay: as above; conditions: Escherichia coli, ATCCBAA196, Table 5, TEM-10 ESBL producing strain, inoculum 5×10^5 cfu/mL, read-out: Minimum Inhibitory Concentration (MIC) E. coli ATCC BAA-196
Experimental: as §1, with “iso-sensitest” for “Mueller Hinton”, “apo transferrin” for “apo-transferrin”

[9] = system: E. cloacae NCTC13464; assay: as above; conditions: Enterobacter cloacae, Table 5, CTX-M group 9 ESBL producing strain, inoculum 5×10^5 cfu/mL, read-out: Minimum Inhibitory Concentration (MIC) E. cloacae NCTC 13464
Experimental: as §1, with “iso-sensitest” for “Mueller Hinton”, “apo transferrin” for “apo-transferrin”

MIC [1] [µg/mL]	MIC [2] [µg/mL]	MIC [3] [µg/mL]	MIC [4] [µg/mL]	MIC [5] [µg/mL]	MIC [6] [µg/mL]	Minimum Inhibitory Concentration (MIC) P. aeruginosa SR24 [4] [µg/mL]	Minimum Inhibitory Concentration (MIC) A. baumannii SR27323 [5]	Minimum Inhibitory Concentration (MIC) E. coli ATCC BAA-199 ([1]; Table 2, SHV-3 ESBL producing strain)	Minimum Inhibitory Concentration (MIC) K. pneumoniae ATCC BAA-1705 ([2]; Table 2, KPC-2 carbapenemase producing strain)	Minimum Inhibitory Concentration (MIC) E. coli ATCC BAA-200 ([3]; Table 2, SHV-4 ESBL producing strain)	Minimum Inhibitory Concentration (MIC) P. aeruginosa SR27060 ([6]; Table 2, IMP-1 MBL producing strain (carbapenem resistance strain)) [μg/ml]	MIC [7] [µg/mL]	MIC [8] [µg/mL]	MIC [9] [µg/mL]	Structure (SMILES)
≤ 0.031	≤ 0.031	≤ 0.031	0.5 (≈ 0.65 µM)	2 (≈ 2.6 µM)	4 (≈ 5.2 µM)										CC(C)(O/N=C(\C(=O)N[C@@H]1C(=O)N2C(c3nnn[n-]3)=C(CSc3cc[n+](CC(=O)c4ccc(O)c(O)c4)cc3)C[S+]([O-])[C@H]12)c1csc(N)n1)C(=O)O (some centres unmarked) [Compound I-7]
1 (≈ 1.37 µM)	0.25 (≈ 0.343 µM)	2 (≈ 2.74 µM)	0.25 (≈ 0.343 µM)	0.5 (≈ 0.686 µM)	> 32										CC(C)(O/N=C(\C(=O)N[C@@H]1C(=O)N2C(C(=O)[O-])=C(CSc3cc[n+](CC(=O)c4ccc(O)c(O)c4)cc3)CS[C@H]12)c1csc(N)n1)C(=O)O [Comparative Compound 1, reference compound]
≤ 0.031	≤ 0.031	≤ 0.031			0.5 (≈ 0.69 µM)	0.063	≦0.031 μg/ml								CC(C)(O/N=C(\C(=O)N[C@@H]1C(=O)N2C(c3nnn[n-]3)=C(CSc3cc[n+](Cc4ccc(O)c(O)c4)cc3)CS[C@H]12)c1csc(N)n1)C(=O)O [Compound I-2]
≤ 0.031	≤ 0.031	≤ 0.031	0.063 (≈ 0.0886 µM)	0.125 (≈ 0.176 µM)											CC(C)(O/N=C(\C(=O)N[C@@H]1C(=O)N2C(c3nnn[n-]3)=C(CSc3cc[n+](-c4ccc(O)c(O)c4)cc3)CS[C@H]12)c1csc(N)n1)C(=O)O [Compound I-6]
						0.25	1 µg/mL	≦0.031 μg/ml	≦0.031 μg/ml	≦0.031 μg/ml	1.				CC(C)(O/N=C(\C(=O)N[C@@H]1C(=O)N2C(c3nnn[n-]3)=C(CSc3cc[n+](Cc4ccc(O)c(O)c4)cc3)CS[C@H]12)c1csc(N)n1)C(=O)O [Compound I-1]
0.063 (≈ 0.0832 µM)	≤ 0.031	0.25 (≈ 0.33 µM)	0.25 (≈ 0.33 µM)	2 (≈ 2.64 µM)	16 (≈ 21.1 µM)										C[C@H](O/N=C(\C(=O)N[C@@H]1C(=O)N2C(c3nnn[n-]3)=C(CSc3cc[n+](CC(=O)c4ccc(O)c(O)c4)cc3)CO[C@H]12)c1nc(N)sc1Cl)C(=O)O [Compound I-8]
												0.125	0.125	0.063	CC(C)(O/N=C(\C(=O)N[C@@H]1C(=O)N2C(c3nnn[n-]3)=C(CSc3cc[n+](-c4ccc(O)c(O)c4Cl)cc3)CS[C@H]12)c1nsc(N)n1)C(=O)[O-].[Na+] [Compound I-17]
												≤ 0.031	≤ 0.031	0.125	CC(C)(O/N=C(\C(=O)N[C@@H]1C(=O)N2C(c3nnn[n-]3)=C(CSc3cc[n+](CC(=O)c4ccc(O)c(O)c4Cl)cc3)CS[C@H]12)c1nc(N)sc1Cl)C(=O)[O-].[Na+] [Compound I-15]
0.125 (≈ 0.166 µM)	≤ 0.031	0.25 (≈ 0.332 µM)	0.125 (≈ 0.166 µM)	1 (≈ 1.33 µM)	2 (≈ 2.65 µM)										CC(C)(O/N=C(\C(=O)N[C@@H]1C(=O)N2C(c3nnn[n-]3)=C(CSc3cc[n+](CC(=O)c4ccc(O)c(O)c4)cc3)CS[C@H]12)c1nsc(N)n1)C(=O)O [Compound I-4]
≤ 0.031	≤ 0.031	0.063 (≈ 0.0815 µM)	0.125 (≈ 0.162 µM)	0.5 (≈ 0.647 µM)	1 (≈ 1.29 µM)										C[C@H](O/N=C(\C(=O)N[C@@H]1C(=O)N2C(c3nnn[n-]3)=C(CSc3cc[n+](CC(=O)c4ccc(O)c(O)c4)cc3)CS[C@H]12)c1nc(N)sc1Cl)C(=O)O [Compound I-5]

— US9242999B2, “Cephem compound having pyridinium group” (priority 2011, dated 2016)
